{
  "source": "ChEMBL document CHEMBL5329177",
  "about": "“De novo design of a stapled peptide targeting SARS-CoV-2 spike protein receptor-binding domain” (RSC Med Chem, 2023)",
  "tested_on": "Vero C1008",
  "assay": "Cytotoxicity against African green monkey Vero E6 cells assessed as inhibition of cell growth measured after 48 hrs by MTT assay",
  "assay_type": "toxicity, cell-based",
  "conditions": "chlorocebus sabaeus, vero c1008, 48 h, dose 0.05-50 µM",
  "note": "Starred links: 1 amine or outer side, 2 acyl side, 3 side chain; linkers in the order of their positions; H or OH if unused. Positions of bridges follow the written chain, without caps; N, C: chain ends. Non-standard residues stand in square brackets, D forms with d. Residues, ends and D or L forms follow the SMILES beside them. X1 = C[C@@](CC=[*:3])(N[*:1])C(=O)[*:2]",
  "data": [
    {"smiles": "CSCC[C@@H]1NC(=O)[C@H](CC(N)=O)NC(=O)[C@@H]2CC(=O)NCCCC[C@H](NC(=O)[C@H](Cc3c[nH]c4ccccc34)NC(=O)[C@@H](NC(=O)[C@H](CCCCN)NC(=O)[C@H](Cc3ccc(O)cc3)NC(=O)[C@H](CC(C)C)NC(=O)[C@H](Cc3c[nH]c4ccccc34)NC(=O)[C@H](CCC(=O)O)NC(=O)[C@@H](NC(=O)CNC(C)=O)[C@@H](C)O)C(C)C)C(=O)N[C@@H](C)C(=O)N[C@@H](Cc3ccccc3)C(=O)N[C@@](C)(C/C=C/C[C@@](C)(C(=O)O)NC1=O)C(=O)N2", "note": "(Ac-GTEWLYKVWKAF[X1]DNM[X1]-OH; lactam 10-14; staple (E) 13-17)", "values": [
      {"measurement": "Activity", "value": "Dose-Dependent Effect"}
    ]}
  ]
}
